Reference: patent publication US7189711B2, “2, 3-benzodiazepine derivatives and pharmaceutical compositions containing the same as the active ingredient” (Egis Gyogyszergyar RT., priority 2000, dated 2007)

Experiments:
male NMRI mice = test: Neuroprotective effect in magnesium chloride induced global cerebral ischemia in mice; type: in vivo; details: intraperitoneal, 30 minutes before i.v. saturated magnesium chloride; linear regression over four doses
Experimental: Neuroprotective Effect in Magnesium Chloride Induced Global Cerebral Ischemia in Mice
The examination was carried out on groups consisting of 10 male NMRI mice weighing 20–25 g. The compounds to be examined were dissolved in a mixture of 5 volumes of 5M aqueous hydrochloric acid and 95 volumes of water, then the pH value of the solution was adjusted to 3 by the addition of 1M aqueous sodium hydroxide solution. The solution obtained was administered intraperitoneally in a volume of 10 ml/kg. Each compound was tested at four increasing dose levels, and a further group of animals was treated only with the vehicle (the latter was the control group). 30 minutes after treatment, all mice received an intravenous injection of saturated aqueous magnesium chloride solution in a volume of 5 ml/kg. This injection caused an immediate cardiac arrest and complete cerebral ischemia. The increase in survival time (i.e. the interval between the injection of magnesium chloride and the last observable gasp) was considered as a measure of the neuroprotective effect according to Berga et al. [Berga, P. et al., Synergistic interactions between piracetam and dihydroergocristine in some animal models of cerebral hypoxia and ischaemia, Arzneim. -Forsch., 36, 1314–1320 (1986)]. Percentage changes in survival time were calculated in comparison to that measured in the control group, and, from the values obtained, the dose prolonging survival by 50% (PD50) was calculated by linear regression analysis.

male Wistar rats = test: Duration of action in rats as assessed from the decrease in body core temperature (radiotelemetry); type: in vivo; details: intraperitoneal, mean of 6 animals
Experimental: Duration of Action in Rats as Assessed From the Decrease in Body Core Temperature
One week prior to treatments, 6 male Wistar rats were anaesthetized by administering 60 mg/kg of pentobarbital sodium [sodium 5-ethyl-5-(1-methylbutyl)barbiturate]intraperitoneally. Using sterile surgical procedures, TL11M2C50-PXT or TA10TA-F40 type radiotelemetry transmitters (Data Sciences International, St. Paul, Minn., USA) were implanted into the peritoneal cavity of the animals. The transmitters permitted continuous monitoring of the core body temperature. After implantation, the rats were treated with an antibiotic (benzathine-benzylpenicillin was administered in a dose of 1 ml/kg i.m.). [The chemical name of benzathine-benzylpenicillin: [2S-(2α,5α,6β)]-3,3-dimethyl-7-oxo-6-[(phenoxyacetyl)amino]-4-thia-1-azabicyclo[3.2.0]heptane-2-carboxylic acid]. The animals were housed individually in type 2 plastic rat cages with free access to food and tap water.
The compounds to be examined were dissolved in a mixture of 5 volumes of 5M aqueous hydrochloric acid and 95 volumes of water, then the pH value of the solution was adjusted to 3 by the addition of 1M aqueous sodium hydroxide solution. The solution obtained was administered intraperitoneally in a volume of 10 ml/kg.
Radio signals emitted by the transmitters were detected by RLA1000 or RLA2000 type receivers placed under each cage. Data were collected and saved by a Dataquest IV computerized data acquisition system. The computer was set to sample body temperature for 10 seconds in every second minute. Mean values for 30 min. periods over the whole day were calculated running the “sort utility” of the Dataquest IV system. The upper and lower limits of the evaluating routine were set to exclude biologically improbable values. Individual body temperature curves were averaged for the 6 animals.
Peak effect (PE) was measured as the maximum decrease in body temperature in comparison to the last value prior to treatment (control value). Using the mean values, duration of action (D) of the compounds was determined. This is the time interval from treatment to return of body temperature to the control level.

[1] = N-acetylation in rat liver slices (N-acetyl metabolite by HPLC); type: in vitro ADME, Wistar rats; details: 50 μM compound, 37° C.
Experimental: Reduction of the rate of N-acetylation due to ortho substitution
Liver slices of Wistar rats were incubated in oxigenized Krebs-Ringer solution at 37° C. in the presence of 50 μM of 2,3-benzodiazepine derivative examined. 0.5 ml aliquots were taken at the beginning of the examination, then after 30 and 60 minutes. Plasma proteins were precipitated with perchloric acid and, after alkalization, the 2,3-benzodiazepine derivatives were extracted with chloroform. The chloroform solutions were evaporated to dryness, the residue was dissolved in the corresponding eluent. The 2,3-benzodiazepine derivative used and the N-acetyl metabolite thereof were determined by high pressure liquid chromatography (Beckman System Gold HPLC, C-18 reversed-phase column) using an UV detector (at 240 nm). Different eluents were used for the optimal separation of the compounds. In case of the compound according to Example 1 and the corresponding 1-(4-amino-phenyl) analogue, the eluent consisted of a mixture of 50% of 2 mM heptafluoro-butyric acid, 25% of methanol and 25% of acetonitrile. For the compound according to Example 3 and the corresponding 1-(4-amino-phenyl) analogue, the eluent was a mixture of 50% of 2 mM heptafluorobutyric acid, 20% of methanol and 30% of acetonitrile. For the compound according to Example 4 and the corresponding 1-(4-amino-phenyl) analogue, the eluent consisted of a mixture of 50% of 2 mM heptafluorobutyric acid and 50% of acetonitrile.
The percentage of N-acetyl metabolite content of the sample taken at a certain time was calculated by dividing the hundredfold of the peak area of the metabolite with the sum of the peak areas of the 2,3-benzodiazepine derivative used and the N-acetyl metabolite. The results obtained are shown in Table 1 in which the concentrations determined after 0, 30 and 60 minutes are indicated.

SMILES | PD50 (dose prolonging survival by 50%) (male NMRI mice) | D (duration of action, time from treatment to return of body temperature to control level) (male Wistar rats) | PE (peak effect, maximum decrease in body temperature vs. last value prior to treatment) (male Wistar rats) | other results
COc1ccc2c(c1)C(c1ccc(N)c(C)c1)=NN(C(C)=O)C(C)C2 (racemic) |  |  |  | melting point: 169 to 171 °C
CC(=O)N1N=C(c2ccc(N)c(C)c2)c2ccc(Cl)cc2CC1C (racemic) |  |  |  | melting point: 200 to 205 °C
CC(=O)N1N=C(c2ccc(N)c(C)c2)c2cc(Cl)ccc2CC1C (racemic) [Example 1, (±)-3-Acetyl-1-(4-amino-3-methylphenyl)-4,5-dihydro-8-chloro-4-methyl-3H-2,3-benzodiazepine] | 4.6 mg/kg | 20 h | −2.34 Δ° C. | 
CCC(=O)N1N=C(c2ccc(N)c(C)c2)c2cc(Cl)ccc2CC1C (racemic) [Example 2, (±)-1-(4-Amino-3-methylphenyl)-4,5-dihydro-8-chloro-4-methyl-3-propionyl-3H-2,3-benzodiazepine] |  | 6 h | −2.04 Δ° C. | 
CC(=O)N1N=C(c2ccc(N)c(Cl)c2)c2cc(Cl)ccc2CC1C (racemic) [Example 3, (±)-3-Acetyl-1-(4-amino-3-chlorophenyl)-4,5-dihydro-8-chloro-4-methyl-3H-2,3-benzodiazepine] |  |  |  | melting point: 143 to 144 °C
CC(=O)N1N=C(c2ccc(N)c(C)c2)c2cc(Cl)c(Cl)cc2CC1C (racemic) [Example 4, (±)-3-Acetyl-1-(4-amino-3-methylphenyl)-4,5-dihydro-7,8-dichloro-4-methyl-3H-2,3-benzodiazepine] | 9.0 mg/kg | 19 h | −3.09 Δ° C. | 
CCC(=O)N1N=C(c2ccc(N)c(C)c2)c2cc(Cl)c(Cl)cc2CC1C (racemic) [Example 5, (±)-1-(4-Amino-3-methylphenyl)-4,5-dihydro-7,8-dichloro-4-methyl-3-propionyl-3H-2,3-benzodiazepine] | 12.3 mg/kg |  |  | 
CC(=O)N1N=C(c2ccc(N)cc2)c2cc(Cl)ccc2CC1C (stereo not shown) [Example 1a, 3-acetyl-1-(4-amino-phenyl)-4,5-dihydro-8-chloro-4-methyl-3H-2,3-benzo-diazepine, reference compound] | 10.4 mg/kg |  |  | 
CC(=O)N1N=C(c2ccc(N)cc2)c2cc(Cl)ccc2CC1C (stereo not shown) [Example 1a, 3-acetyl-1-(4-amino-phenyl)-4,5-dihydro-8-chloro-4-methyl-3H-2,3-benzo-diazepine] |  |  |  | Amount of N-acetyl metabolite in % ([1]; incubation time 0 min): 0%; Amount of N-acetyl metabolite in % ([1]; incubation time 30 min): 18%; Amount of N-acetyl metabolite in % ([1]; incubation time 60 min): 31%
CCC(=O)N1N=C(c2ccc(N)cc2)c2cc(Cl)ccc2CC1C (stereo not shown) [Example 2a, 1-(4-aminophenyl)-4,5-dihydro-8-chloro-4-methyl-3-propionyl-3H-2,3-benzo-diazepine, reference compound] |  | 4 h | −1.87 Δ° C. | 
CC(=O)N1N=C(c2ccc(N)cc2)c2cc(Cl)c(Cl)cc2CC1C (stereo not shown) [Example 4a, 3-acetyl-1-(4-amino-phenyl)-4,5-dihydro-7,8-dichloro-4-methyl-3H-2,3-benzo-diazepine, reference compound] | 11.0 mg/kg | 3.5 h | −1.72 Δ° C. | 
CCC(=O)N1N=C(c2ccc(N)cc2)c2cc(Cl)c(Cl)cc2CC1C (stereo not shown) [Example 5a, 1-(4-aminophenyl)-4,5-dihydro-7,8-dichloro-4-methyl-3-propionyl-3H-2,3-benzo-diazepine, reference compound] | 14.6 mg/kg |  |  | 
